Assays:
S. aureus = assay: Clinical outcome of the prescribed antibiotic therapy (presence/absence of S. aureus in a second sample at end of first-line treatment); type: in vivo, patients diabétiques
Excerpt: • La Figure 1 représente des courbes de croissance de bactéries en fonction du milieu de culture. Sur cette figure, les ordonnées correspondent au logarithme d'unités formant colonie par millilitre de milieu de culture (Log UFC/ml) et les abscisses, au temps en heure (H). La Figure 1A représente les courbes correspondant à la croissance de 2 souches de S. aureus, Newman (gauche) et SAC1 (droite), dans le milieu BHI (courbe avec indicateurs ronds) et un exemple de milieu selon l'invention (MP) (courbe avec indicateurs carrés). La Figure 1B représente les courbes correspondant à la croissance de 2 souches de P. aeruginosa, PAO1 (gauche) et PAC1 (droite), dans le milieu BHI (courbe avec indicateurs ronds) et un exemple de milieu selon l'invention (MP) (courbe avec indicateurs carrés). La Figure 1C représente les courbes correspondant à la croissance de 2 souches cliniques S. aureus SAC1 et P. aeruginosa PAC1, en coculture dans le milieu BHI (P. aeruginosa BHI ou S. aureus BHI) et un exemple de milieu selon l'invention (MP) (P. aeruginosa MP ou S. aureus MP). La mesure de différence significative, réalisée par le test de Student, entre les valeurs d'UFC/mL est exprimée, soit par (***) qui correspond à une p-value <0,001, soit par (**) qui correspond à une p-value <0,01. • La Figure 2 représente les résultats obtenus d'une détermination de l'adhésion et de la formation de biofilm par dénombrement à 24h. Sur cette figure, les ordonnées correspondent au logarithme d'unités formant colonie par millilitre de milieu de culture (Log UFC/ml). La Figure 2A représente un histogramme ou diagramme en bâton du nombre de bactéries dénombrées suite à des cultures séparées de souche S. aureus Newman (Newman), S. aureus SAC1 (SAC 1), P. aeruginosa PAO1 (PAO1) ou P. aeruginosa PAC1 (PAC1), pendant 24H dans un milieu BHI (BHI) (bâtons noirs) ou dans un exemple de milieu selon l'invention (MP) (bâtons gris). La Figure 2B montre sous forme d'histogramme le nombre de bactéries dénombrées suite à des co-cultures des souches de référence S. aureus Newman et P. aeruginosa PAO1 (PAO1/Newman), ainsi que du couple de souches cliniques S. aureus SAC1 et P. aeruginosa PAC1 (PAC 1/SAC1), pendant 24H dans un milieu BHI (BHI) (bâtons noirs) ou dans un exemple de milieu selon l'invention (MP) (bâtons gris). La mesure de différence significative, réalisée par le test de Student, entre les valeurs d'UFC est exprimée, soit par (***) qui correspond à une p-value <0,001, soit par (**) qui correspond à une p-value <0,01. • La Figure 3 représente les résultats obtenus d'une détermination de sensibilité à des antibiotiques de souches cliniques de S. aureus issues d'infections de plaies du pied chez le diabétique. Les données cliniques, anonymisées, nécessaires à l'interprétation des résultats, consistaient en l'antibiothérapie donnée au patient, ainsi que la qualification par les médecins hospitaliers d'un succès ou échec thérapeutique. La définition de succès ou échec thérapeutique est définie comme suit. Le patient commence et suit l'antibiothérapie prescrite et un deuxième prélèvement microbiologique est effectué lors du dernier jour de traitement de la 1ère antibiothérapie (± 2 jours). Ce prélèvement est utilisé pour déterminer la présence/absence du pathogène ciblé par l'antibiothérapie, S. aureus. Si ce prélèvement a montré la persistance d'un S. aureus, l'antibiothérapie est en échec. A l'inverse, en cas d'absence de S. aureus, l'antibiothérapie est associée à un succès thérapeutique. Les antibiogrammes ont été réalisés classiquement sur une durée de 18h ± 2h en accord avec les recommandations de l'EUCAST. Une gamme de l'antibiotique à tester a été réalisée. • La Figure 3A montre sous forme d'histogramme les résultats des CMI déduites d'antibiogrammes sur 11 souches testées en présence d'amoxicilline / clavulanate de potassium (commercialisé par exemple sous le nom d'Augmentin (marque déposée)). […]

souche de S. aureus = details: modèle de sepsis, souris infectée par S. aureus, traitées; cited from earlier work

CCC[C@@H]1C[C@@H](C(=O)N[C@@H]([C@H]2O[C@H](SC)[C@H](O)[C@@H](O)[C@H]2O)[C@H](C)Cl)N(C)C1 [clindamycine]
Succès ou échec thérapeutique (S. aureus; souche C01P009): Succès
Succès ou échec thérapeutique (S. aureus; souche C01P010): Echec
Succès ou échec thérapeutique (S. aureus; souche C03P003): Succès
Succès ou échec thérapeutique (S. aureus; souche C03P004): Succès
Succès ou échec thérapeutique (S. aureus; souche C03P005): Echec
Succès ou échec thérapeutique (S. aureus; souche C03P009): Succès

amoxicilline / clavulanate de potassium [amoxicilline/clavulanate de potassium]
Succès ou échec thérapeutique (S. aureus; souche C01P012): Succès
Succès ou échec thérapeutique (S. aureus; souche C03P001): Succès
Succès ou échec thérapeutique (S. aureus; souche C03P008): Echec
Succès ou échec thérapeutique (S. aureus; souche C04P003): Succès
Succès ou échec thérapeutique (S. aureus; souche C04P005f): Succès
Succès ou échec thérapeutique (S. aureus; souche C04P005i): Succès
Succès ou échec thérapeutique (S. aureus; souche C04P007): Echec
Succès ou échec thérapeutique (S. aureus; souche C06P001f): Echec
Succès ou échec thérapeutique (S. aureus; souche C06P001 i): Echec
Succès ou échec thérapeutique (S. aureus; souche C06P003f): Echec
Succès ou échec thérapeutique (S. aureus; souche C06P003i): Echec

cotrimoxazole
survie des souris (souche de S. aureus): n'a pas permis la survie des souris
Succès ou échec thérapeutique (S. aureus; souche C01P0 01): Echec
Succès ou échec thérapeutique (S. aureus; souche C01P0 11): Succès
Succès ou échec thérapeutique (S. aureus; souche C03P0 02): Echec
Succès ou échec thérapeutique (S. aureus; souche C03P0 07): Echec

Reference: patent EP4060021A1, “MIMETIC MICROBIOLOGICAL CULTURE MEDIUM AND USES THEREOF” (BIOFILM PHARMA, priority 2021, dated 2022)
